The results in this text go back to ChEMBL document CHEMBL1201862, “PubChem BioAssay data set” (2004).

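All cell lines were grown in 96-well plates and treated with compound for 48 hours. Abbreviation: GI50, concentration required for 50% inhibition of growth.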 The source made the active and inactive calls. Rule as the data show it: active = GI50 up to about 1.1 µM and inactive = higher.

Among the test systems are A549; SN12C; SK-MEL-5; SF-295; A498; COLO 205; HCC 2998; OVCAR-4; UACC-62; NCI-H23; M14; NCI-H522; EKVX; ACHN; U-251; OVCAR-5; MCF7; HCT-15; SK-MEL-2; HOP-62.
Holding throughout (experiment): inhibition of tumour cell growth, NCI panel, 48 h

With `Cc1sc(N)c(S(=O)(=O)c2ccccc2)c1C`, the GI50 in the experiment on A549, with SN12C, in the experiment with SK-MEL-5, in the experiment with SF-295, in the experiment with A498 and in the experiment with COLO 205 was > 100 µM (inactive) throughout. Further, the GI50 with HCC 2998, in the experiment with OVCAR-4, in the experiment with UACC-62, in the experiment on NCI-H23, with M14 and in the experiment on NCI-H522 was > 100 µM (inactive) in each case. For the same molecule, the GI50 is > 100 µM (inactive) in the experiment on EKVX; > 100 µM (inactive) in the experiment on ACHN; > 100 µM (inactive) in the experiment with U-251; > 100 µM (inactive) in the experiment with OVCAR-5; > 100 µM (inactive) with MCF7; above 100 µM in the experiment with HCT-15. Moreover, the GI50 in the experiment on SK-MEL-2 is > 100 µM (inactive).
For the molecule `Nc1ncnc2c1ncn2[C@@H]1O[C@H](COP(=O)(O)O)[C@@H](O)[C@@H]1O`, the GI50 in the experiment on A549, with HOP-62, in the experiment on SN12C, with SK-MEL-5, in the experiment on SF-295 and in the experiment on A498 was > 50 µM (inactive) throughout. The GI50 with COLO 205, in the experiment on HCC 2998, in the experiment with OVCAR-4, in the experiment on UACC-62, in the experiment with NCI-H23 and in the experiment with NCI-H522 was > 50 µM (inactive) in each case. Besides, the GI50 in the experiment on EKVX is > 50 µM (inactive); with U-251 it was > 50 µM (inactive); in the experiment with OVCAR-5 it was > 40.7 µM (inactive); in the experiment with MCF7, > 50 µM (inactive); in the experiment with HCT-15, above 50 µM; in the experiment with SK-MEL-2 it was > 50 µM (inactive).
For the molecule `C=C1C(=O)C[C@@]23CCC[C@@]12CC(O)C3` (stereo not given in full), the GI50 with A549 was 30.3 µM (inactive); in the experiment on HOP-62, > 63 µM (inactive); in the experiment on SN12C, 16.9 µM (inactive); in the experiment with SK-MEL-5 it was 10.5 µM (inactive); in the experiment on SF-295, 37.8 µM (inactive); with A498, 15 µM (inactive). In addition, the GI50 with COLO 205 is 21.3 µM (inactive); with HCC 2998, > 46.2 µM (inactive); in the experiment on OVCAR-4, 18.6 µM (inactive); in the experiment on UACC-62, 13.6 µM (inactive); in the experiment with NCI-H23, 21.8 µM (inactive); in the experiment with NCI-H522, 2.37 µM (inactive). Moreover, the GI50 in the experiment on EKVX is 27.3 µM (inactive); in the experiment on U-251, 40.3 µM (inactive); in the experiment with OVCAR-5, 23.4 µM (inactive); in the experiment with MCF7, 16.7 µM (inactive); with HCT-15 it was 13 µM; with SK-MEL-2 it was 24.6 µM (inactive).
Regarding `[N-]=[N+]=CC(=O)OCC(N)C(=O)O` (stereo not given), the GI50 in the experiment with A549 is 0.557 µM (active); in the experiment on HOP-62, 0.582 µM (active); with SN12C it was 0.421 µM (active); in the experiment with SK-MEL-5 it was 0.847 µM (active); in the experiment with SF-295, 0.923 µM (active); with A498, 0.764 µM (active). Moreover, the GI50 was 0.269 µM (active) in the experiment on COLO 205; 0.362 µM (active) in the experiment with HCC 2998; 14.1 µM (inactive) in the experiment on OVCAR-4; 1.19 µM (inactive) in the experiment with UACC-62; 1.04 µM (active) with NCI-H23; 0.54 µM (active) with NCI-H522. Moreover, the GI50 was 0.413 µM (active) in the experiment with EKVX; 0.502 µM (active) in the experiment on U-251; 14.6 µM (inactive) with OVCAR-5; 0.217 µM (active) with MCF7; 0.297 µM with HCT-15; 3.28 µM (inactive) with SK-MEL-2.
On to `CCCCC(C)C1CCC2(C)C=CC(=O)C(C)=C2C1O` (stereo not given), for which the GI50 with A549, in the experiment with HOP-62, with SN12C, with SK-MEL-5, in the experiment with SF-295 and in the experiment with A498 was > 100 µM (inactive) throughout. Moreover, the GI50 with COLO 205, with HCC 2998, in the experiment on OVCAR-4, with UACC-62, in the experiment with NCI-H23 and with NCI-H522 was > 100 µM (inactive) throughout. In addition, the GI50 in the experiment with EKVX was > 100 µM (inactive); in the experiment with U-251, > 100 µM (inactive); in the experiment with OVCAR-5, > 100 µM (inactive); in the experiment with MCF7 it was > 100 µM (inactive); in the experiment on HCT-15 it was above 100 µM; in the experiment with SK-MEL-2 it was > 100 µM (inactive).
Consider `CCOC(=O)c1ccc(N[C@@H]2c3cc4c(cc3C(c3cc(OC)c(O)c(OC)c3)[C@H]3C(=O)OCC32)OCO4)cc1O` (stereo not given in full), for which the GI50 was 0.0946 µM (active) in the experiment on A549; 0.306 µM (active) in the experiment on HOP-62; 1.64 µM (inactive) in the experiment on SN12C; 1.19 µM (inactive) in the experiment on SK-MEL-5; 0.498 µM (active) in the experiment with SF-295; 0.607 µM (active) in the experiment on A498. Besides, the GI50 in the experiment with COLO 205 was 1.18 µM (inactive); in the experiment on HCC 2998, 1.92 µM (inactive); in the experiment with OVCAR-4, 7.69 µM (inactive); with UACC-62 it was 0.469 µM (active); in the experiment on NCI-H23, 0.9 µM (active); with NCI-H522, 0.665 µM (active). The GI50 in the experiment on EKVX was 2.25 µM (inactive); in the experiment with U-251, 0.92 µM (active); in the experiment on OVCAR-5, 1.06 µM (active); in the experiment on MCF7, 0.723 µM (active); with HCT-15 it was 1.09 µM; in the experiment with SK-MEL-2, 0.809 µM (active).
Consider `Cc1c2ccnc(-c3ccccc3)c2cc2c1[nH]c1ccccc12`, for which the GI50 in the experiment on A549 was 1.29 µM (inactive); in the experiment with HOP-62, 2.6 µM (inactive); in the experiment with SN12C, 2.99 µM (inactive); with SK-MEL-5 it was 0.614 µM (active); in the experiment with SF-295 it was 0.879 µM (active); in the experiment with A498, 0.219 µM (active). In addition, the GI50 was 0.735 µM (active) in the experiment on COLO 205; 3.07 µM (inactive) in the experiment on HCC 2998; 2.56 µM (inactive) with OVCAR-4; 1.09 µM (active) with UACC-62; 1.01 µM (active) with NCI-H23; 4.52 µM (inactive) in the experiment on NCI-H522. Also, the GI50 was 2.92 µM (inactive) with EKVX; 0.873 µM (active) in the experiment on U-251; 3.77 µM (inactive) in the experiment on OVCAR-5; 2.13 µM (inactive) in the experiment with MCF7; 0.773 µM in the experiment with HCT-15; 2.62 µM (inactive) with SK-MEL-2.
Turning to `N#Cc1cc2c(cc1C#N)/C(=N\c1cccc(N)n1)N/C2=N\c1cccc(N)n1`, the GI50 is 40.8 µM (inactive) in the experiment on A549; 24.3 µM (inactive) in the experiment on HOP-62; 32.9 µM (inactive) in the experiment with SN12C; 7.16 µM (inactive) in the experiment with SK-MEL-5; 21.3 µM (inactive) in the experiment on SF-295; > 10 µM (inactive) in the experiment on A498. In addition, the GI50 with COLO 205 was 15 µM (inactive); in the experiment on HCC 2998, 20.5 µM (inactive); with UACC-62 it was 15.2 µM (inactive); in the experiment with NCI-H23 it was 16.1 µM (inactive); in the experiment on M14, 17.5 µM (inactive); with NCI-H522, 9.38 µM (inactive). Further, the GI50 is > 100 µM (inactive) in the experiment on EKVX; 20.4 µM (inactive) in the experiment on ACHN; 32.5 µM (inactive) with U-251; > 100 µM (inactive) in the experiment on OVCAR-5; 18.6 µM (inactive) in the experiment with MCF7; 16.3 µM in the experiment with HCT-15. Further, the GI50 with SK-MEL-2 is 21.6 µM (inactive).
For the molecule `O=NN(CCCl)C(=O)NC1CCSc2ccccc21` (stereo not given), the GI50 in the experiment on A549 is > 100 µM (inactive); in the experiment on HOP-62, 0.776 µM (active); with SN12C, > 100 µM (inactive); with SK-MEL-5, > 100 µM (inactive); with SF-295, 57.8 µM (inactive); in the experiment with A498, > 100 µM (inactive). The GI50 in the experiment with COLO 205 was > 100 µM (inactive); in the experiment on HCC 2998, > 100 µM (inactive); with OVCAR-4 it was > 100 µM (inactive); in the experiment on UACC-62, 25 µM (inactive); in the experiment on NCI-H23 it was > 100 µM (inactive); in the experiment on NCI-H522, > 100 µM (inactive). Besides, the GI50 in the experiment with EKVX was 28.3 µM (inactive); in the experiment on U-251 it was 58.2 µM (inactive); in the experiment with OVCAR-5 it was > 100 µM (inactive); with MCF7 it was > 100 µM (inactive); in the experiment on HCT-15, above 100 µM; in the experiment on SK-MEL-2, > 100 µM (inactive).
With `CC(=O)OCC1OC(n2cc(F)c(=O)[nH]c2=O)C(NC(=O)OCc2ccccc2)C(OC(C)=O)C1OC(C)=O` (stereo not given), the GI50 in the experiment on A549, with HOP-62, in the experiment on SN12C, in the experiment on SK-MEL-5, in the experiment with SF-295 and in the experiment with A498 was > 100 µM (inactive) throughout. The GI50 with HCC 2998 was > 100 µM (inactive); with OVCAR-4, > 100 µM (inactive); in the experiment with UACC-62, > 100 µM (inactive); in the experiment on NCI-H23 it was > 100 µM (inactive); in the experiment on NCI-H522, > 95.3 µM (inactive); in the experiment on EKVX, > 100 µM (inactive). Besides, the GI50 in the experiment on U-251 was > 100 µM (inactive); with OVCAR-5 it was > 100 µM (inactive); in the experiment with MCF7 it was > 100 µM (inactive); in the experiment with HCT-15 it was above 100 µM; in the experiment on SK-MEL-2, > 100 µM (inactive).
Regarding `COC(=O)CC1(CNC(=O)OCc2ccccc2)OCCO1`, the GI50 with A549, in the experiment with SN12C, with SK-MEL-5, in the experiment with SF-295, in the experiment with A498 and in the experiment with COLO 205 was > 100 µM (inactive) each time. Moreover, the GI50 with HCC 2998, with OVCAR-4, in the experiment with UACC-62, in the experiment with NCI-H23, in the experiment on M14 and in the experiment on NCI-H522 was > 100 µM (inactive) each time. Besides, the GI50 in the experiment on EKVX was > 100 µM (inactive); with ACHN it was > 100 µM (inactive); with U-251, > 100 µM (inactive); in the experiment with OVCAR-5, > 100 µM (inactive); in the experiment with MCF7 it was > 100 µM (inactive); in the experiment on HCT-15, above 100 µM. Also, in the experiment on SK-MEL-2, the GI50 is > 100 µM (inactive).
